The supplement of paper PMC8024199
± gives the standard deviation of the averaged measurements.

Assays:
Assay in all cases: drug sensitivity score (DSS) (DSS score); higher = more sensitive (stronger growth inhibition); extreme values may be limits of the assay
[1] = system: Ba/F3 P210-BCR-ABL1 RUNX1-/- (mouse)
Method in brief: (§1)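 A drug sensitivity score summarised each dose-response curve, with luminescence from CellTiter-Glo scaled between vehicle and positive-control wells. Values are the mean of two replicates. The cells were mouse Ba/F3 clones that were CRISPR/Cas9-edited at a target exon or were edited controls, exposed on pre-printed 384-well plates to a 528-compound library at five concentrations spanning a 10,000-fold range. Plates held 10,000 cells per well in RPMI with 10% FBS for 72 h at 37 °C and 5% CO2.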

[2] = system: Ba/F3 P210-BCR-ABL1 RUNX1-/mut (mouse)
Method in brief: as §1

[3] = system: Ba/F3 P210-BCR-ABL1 RUNX1wt/wt control (mouse)
Method in brief: as §1

Compound	drug sensitivity score [1]	drug sensitivity score [2]	drug sensitivity score [3]
Cc1cn(-c2cc(NC(=O)c3ccc(C)c(Nc4nccc(-c5cnccn5)n4)c3)cc(C(F)(F)F)c2)cn1 [Radotinib]	28.9 ± 8.2	30.9 ± 0.64	27.9 ± 0.14
Nc1cc(F)ccc1NC(=O)c1ccc(CNC(=O)/C=C/c2cccnc2)cc1 [Tucidinostat]	9.05 ± 2.8	8.05 ± 4.6	4.9 ± 0.14
CCN1C(=O)CNc2ncc(-c3ccc(-c4nc[nH]n4)nc3C)nc21 [CC-115]	12.6 ± 2.9	12.8 ± 1.9	7.65 ± 0.21
NC(=O)Nc1cc(-c2cccc(F)c2)sc1C(=O)N[C@H]1CCCNC1 [AZD7762]	9.8 ± 2	7.8 ± 2.1	7.1 ± 0.71
CN1CCN(C2CCC(n3cc(-c4ccc(Oc5ccccc5)cc4)c4c(N)ncnc43)CC2)CC1 (configuration not stated)	23.4 ± 0.28	17.9 ± 1.1	16.6 ± 0.71
COc1cc2c(cc1OC(C)C)[C@H](c1ccc(Cl)cc1)N(c1ccc(N(C)C[C@H]3CC[C@H](N4CCN(C)C(=O)C4)CC3)cc1)C(=O)C2 [NVP-CGM097]	8.7 ± 0.71	8.8 ± 3	6.3 ± 0.28
COc1cc2nccc(Oc3ccc(NC(=O)NC4CC4)c(Cl)c3)c2cc1C(N)=O [Lenvatinib]	2.7 ± 1.1	0.4 ± 0.57	0
COc1cc2c(cc1-c1c(C)noc1C)ncc1[nH]c(=O)n([C@H](C)c3ccccn3)c12 [I-BET151]	18.6 ± 0.78	18.4 ± 2.3	13.9
CC(C)N(C[C@H]1O[C@@H](n2cnc3c(N)ncnc32)[C@H](O)[C@@H]1O)[C@H]1C[C@@H](CCc2nc3cc(C(C)(C)C)ccc3[nH]2)C1 [Pinometostat]	0	0	0
O=C(O)CNC(=O)c1c(O)c2ccccc2n(Cc2ccccc2)c1=O [IOX-2]	0	0.3 ± 0.42	0
COc1cccc(-c2ccc(NC(=O)C3=C(C(=O)O)CCC3)c(F)c2)c1 [Vidofludimus]	2.2 ± 2.8	2.4 ± 1.7	0
CC1=C2C[C@H]3[C@@H](CC[C@@H]4C[C@H](NS(C)(=O)=O)CC[C@@]43C)[C@@H]2CC[C@@]2(C1)O[C@@H]1C[C@H](C)CN[C@H]1[C@H]2C [Saridegib]	2.3 ± 0.28	2.15 ± 3	0
COc1cc(C)c(/C=C/C(C)=C/C=C/C(C)=C/C(=O)O)c(C)c1C [Acitretin]	0	1.3 ± 1.8	0
CCc1nc(C(N)=O)c(Nc2ccc(N3CCC(N4CCN(C)CC4)CC3)c(OC)c2)nc1NC1CCOCC1 [Gilteritinib]	6.2 ± 2	8.4 ± 2.5	3.25 ± 0.78
O=C(Nc1cccnc1)N1CCC(Cc2cccc(Oc3ccc(C(F)(F)F)cn3)c2)CC1 [PF-3845]	2.15 ± 0.64	1.9 ± 2.7	2.1 ± 0.14
COc1cc2c(NC3CCN(C(C)C)CC3)nc(C3CCCCC3)nc2cc1OCCCN1CCCC1 [UNC0638]	9.2 ± 0.57	7.75 ± 2	1.45 ± 0.64
C=CCN(/C=C1/C(=O)O[C@H](COC)[C@@]2(C)C1=C(O)C(=O)C1=C2[C@H](OC(C)=O)C[C@]2(C)C(=O)CC[C@@H]12)CC=C [Sonolisib]	1.7 ± 1.1	0.7 ± 0.99	0

Compound	drug sensitivity score [1]	drug sensitivity score [2]	drug sensitivity score [3]
CC(C)(C)c1cc(NC(=O)Nc2ccc(Oc3ccnc4[nH]c(=O)cnc34)cc2F)n(-c2ccccc2)n1	25.9 ± 0.78	20.9 ± 0.49	17.4 ± 0.21
O=C(Nc1ccc(OC(F)(F)Cl)cc1)c1cnc(N2CC[C@@H](O)C2)c(-c2cc[nH]n2)c1 [Asciminib]	31.85 ± 0.071	10.7 ± 4.5	18.8 ± 0.71
CC(C)c1cc(-c2n[nH]c(=O)n2-c2ccc3c(ccn3C)c2)c(O)cc1O [Ganetespib]	24.8 ± 3.4	23.6 ± 2.2	19.1 ± 0.21
CC[C@]1(O)C[C@H]2CN(CCc3c([nH]c4ccccc34)[C@@](C(=O)OC)(c3cc4c(cc3OC)N(C=O)[C@H]3[C@@](O)(C(=O)OC)[C@H](OC(C)=O)[C@]5(CC)C=CCN6CC[C@]43[C@@H]65)C2)C1 [Vincristine]	23.9 ± 4.2	23.1 ± 2.5	13.9 ± 2.3
CCNc1nc(Nc2cc(F)c(C(=O)N3CCOCC3)cc2OC)ncc1C(F)(F)F [GNE-7915]	0	0	0
S=C(NCc1ccc2c(c1)OCO2)N1CCN(c2ncnc3c2oc2ccccc23)CC1 [Amuvatinib]	11.3 ± 1.3	8.45 ± 1.9	14.9 ± 1.1
Cc1cc(-c2nc(-c3ccc(OC(F)(F)F)cc3)no2)nn1Cc1ccnc(N2CCN(C3CC3)CC2)c1 [BAY 87-2243]	4.6 ± 2.3	3.25 ± 1.5	4.9 ± 0.57
Cc1c(-c2c(-c3ccc(F)o3)sc3ncnc(O[C@H](Cc4ccccc4OCc4ccnn4CC(F)(F)F)C(=O)O)c23)ccc(OCCN2CCN(C)CC2)c1Cl	1.7 ± 2.4	3.45 ± 4.9	0
CN(C)C(=O)c1ccc(S(=O)(=O)c2ccc(NC(=O)[C@@](C)(O)C(F)(F)F)c(Cl)c2)cc1 [AZD7545]	0.65 ± 0.071	0	0
COc1cc(CCc2cc(NC(=O)c3ccc(N4CC(C)NC(C)C4)cc3)n[nH]2)cc(OC)c1 (configuration not stated) [AZD4547]	0.2 ± 0.28	0	0
CC(C)(C)Cn1c(N)nc2ccc(-c3[nH]c(C(C)(C)C)nc3-c3ccc(F)cc3)nc21 [Ralimetinib]	9.6 ± 3.2	8 ± 4.2	0.7 ± 0.99
CN(C)C1CCN(C(=O)c2ccc(NC(=O)Nc3ccc(-c4nc(N5CCOCC5)nc(N5CCOCC5)n4)cc3)cc2)CC1 [Gedatolisib]	13.6 ± 0.35	15.2 ± 0.92	4.55 ± 0.071
COc1cc2nccc(Oc3ccc(NC(=O)Nc4cc(C)on4)c(Cl)c3)c2cc1OC [Tivozanib]	22.8 ± 0.92	18.1 ± 0.92	14.45 ± 0.071
O=C(O)CC1CC(c2ccccc2)=NO1 (configuration not stated) [VGX-1027]	0.9 ± 1.3	0.05 ± 0.071	0
CNC(=O)CN1CCC(Oc2cc3c(Nc4cccc(Cl)c4F)ncnc3cc2OC)CC1 [Sapitinib]	0.35 ± 0.49	0	0
COc1ccc(-c2nc(N3CCOCC3)c3sc(CN(C)c4ncc(C(=O)NO)cn4)cc3n2)cn1 [CUDC-907]	40.9 ± 0.85	43.65 ± 0.35	39 ± 0.57
CCC1=C[C@@H]2CN(C1)Cc1c([nH]c3ccccc13)[C@@](C(=O)OC)(c1cc3c(cc1OC)N(C)[C@H]1[C@@](O)(C(=O)OC)[C@H](OC(C)=O)[C@]4(CC)C=CCN5CC[C@]31[C@@H]54)C2 [Vinorelbine]	38 ± 2.1	36.1 ± 1.1	19.1
